Test results as given in PubChem BioAssay AID1918948 (Molecular Pharmacology Branch, DTP, NCI, 2023).

System: K-562 leukemia growth, % test/control
Test: Anticancer human tumor K-562 cell line growth inhibition;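 also: spheroids exposed to compounds for 7 days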;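 as to viability, T/C: 100% = DMSO vehicle wells and lower values mean fewer viable cells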
Conditions: spheroids with HUVEC and MSC; for IC50: curve of first compound; for viability, T/C: stronger effect = lower value
In short: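 Drug combinations with the LSD1 inhibitor iadademstat tested on tumor cells co-cultured as spheroids with endothelial cells and mesenchymal stem cells. Concentrations descended in half-log increments from clinical Cmax or 10 microM.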

[1] = second compound 0.1 µM, first compound 0.0316 µM
[2] = second compound 0.1 µM, first compound 0.1 µM
[3] = second compound 0.1 µM, first compound 0.316 µM
[4] = second compound 0.1 µM, first compound 1 µM
[5] = second compound 0.1 µM, first compound 3.16 µM
[6] = second compound 0.1 µM, first compound 10 µM
[7] = second compound 0.316 µM, first compound 0.0316 µM
[8] = second compound 0.316 µM, first compound 0.1 µM
[9] = second compound 0.316 µM, first compound 0.316 µM
[10] = second compound 0.316 µM, first compound 1 µM
[11] = second compound 0.316 µM, first compound 3.16 µM
[12] = second compound 0.316 µM, first compound 10 µM
[13] = second compound 1 µM, first compound 0.0316 µM
[14] = second compound 1 µM, first compound 0.1 µM
[15] = second compound 1 µM, first compound 0.316 µM
[16] = second compound 1 µM, first compound 1 µM
[17] = second compound 1 µM, first compound 3.16 µM
[18] = second compound 1 µM, first compound 10 µM
[19] = second compound 3.16 µM, first compound 0.0316 µM
[20] = second compound 3.16 µM, first compound 0.1 µM
[21] = second compound 3.16 µM, first compound 0.316 µM
[22] = second compound 3.16 µM, first compound 1 µM
[23] = second compound 3.16 µM, first compound 3.16 µM
[24] = second compound 3.16 µM, first compound 10 µM
[25] = second compound 10 µM, first compound 0.0316 µM
[26] = second compound 10 µM, first compound 0.1 µM
[27] = second compound 10 µM, first compound 0.316 µM
[28] = second compound 10 µM, first compound 1 µM
[29] = second compound 10 µM, first compound 3.16 µM
[30] = second compound 10 µM, first compound 10 µM

SMILES: CC(C)c1c(-c2ccccc2)nc2c(C#N)c[nH]n2c1=O + NC1CC1c1ccc(-c2cccc(O)c2)cc1
- IC50 (second compound 0.1 µM): > 10 µM
- IC50 (second compound 0.316 µM): > 10 µM
- IC50 (second compound 1 µM): > 10 µM
- IC50 (second compound 3.16 µM): > 10 µM
- IC50 (second compound 10 µM): > 10 µM
- viability, T/C [1]: 105%
- viability, T/C [2]: 108%
- viability, T/C [3]: 102%
- viability, T/C [4]: 107%
- viability, T/C [5]: 111%
- viability, T/C [6]: 106%
- viability, T/C [7]: 102%
- viability, T/C [8]: 103%
- viability, T/C [9]: 102%
- viability, T/C [10]: 105%
- viability, T/C [11]: 106%
- viability, T/C [12]: 98.9%
- viability, T/C [13]: 97.8%
- viability, T/C [14]: 103%
- viability, T/C [15]: 95.5%
- viability, T/C [16]: 101%
- viability, T/C [17]: 99.4%
- viability, T/C [18]: 96.4%
- viability, T/C [19]: 102%
- viability, T/C [20]: 97.7%
- viability, T/C [21]: 100%
- viability, T/C [22]: 97.2%
- viability, T/C [23]: 99.2%
- viability, T/C [24]: 95.9%
- viability, T/C [25]: 99.4%
- viability, T/C [26]: 96.1%
- viability, T/C [27]: 96.5%
- viability, T/C [28]: 98.3%
- viability, T/C [29]: 98.3%
- viability, T/C [30]: 92%

SMILES: O=C(C=Cn1cnc(-c2cc(C(F)(F)F)cc(C(F)(F)F)c2)n1)NNc1cnccn1 + NC1CCC(NC2CC2c2ccccc2)CC1
- IC50 (second compound 0.1 µM): 0.0598 µM
- IC50 (second compound 0.316 µM): 0.0589 µM
- IC50 (second compound 1 µM): 0.061 µM
- IC50 (second compound 3.16 µM): 0.0606 µM
- IC50 (second compound 10 µM): 0.0431 µM
- viability, T/C (second compound 0.1 µM, first compound 0.00316 µM): 104%
- viability, T/C (second compound 0.1 µM, first compound 0.01 µM): 92.3%
- viability, T/C [1]: 69.5%
- viability, T/C [2]: 36.6%
- viability, T/C [3]: 4.19%
- viability, T/C [4]: 1.72%
- viability, T/C (second compound 0.316 µM, first compound 0.00316 µM): 107%
- viability, T/C (second compound 0.316 µM, first compound 0.01 µM): 92%
- viability, T/C [7]: 69.2%
- viability, T/C [8]: 36.5%
- viability, T/C [9]: 4.44%
- viability, T/C [10]: 1.67%
- viability, T/C (second compound 1 µM, first compound 0.00316 µM): 107%
- viability, T/C (second compound 1 µM, first compound 0.01 µM): 91.5%
- viability, T/C [13]: 70%
- viability, T/C [14]: 38.2%
- viability, T/C [15]: 4.8%
- viability, T/C [16]: 2.29%
- viability, T/C (second compound 3.16 µM, first compound 0.00316 µM): 103%
- viability, T/C (second compound 3.16 µM, first compound 0.01 µM): 92.5%
- viability, T/C [19]: 67.8%
- viability, T/C [20]: 38.8%
- viability, T/C [21]: 4.71%
- viability, T/C [22]: 1.78%
- viability, T/C (second compound 10 µM, first compound 0.00316 µM): 88.8%
- viability, T/C (second compound 10 µM, first compound 0.01 µM): 75.1%
- viability, T/C [25]: 57.1%
- viability, T/C [26]: 33.7%
- viability, T/C [27]: 3.55%
- viability, T/C [28]: 2.29%

SMILES: O=C(c1cc(Cc2n[nH]c(=O)c3ccccc23)ccc1F)N1CCN(C(=O)C2CC2)CC1 + NC1CC1c1ccc(-c2cccc(O)c2)cc1
- IC50 (second compound 0.1 µM): 9.6 µM
- IC50 (second compound 0.316 µM): 9.55 µM
- IC50 (second compound 1 µM): > 10 µM
- IC50 (second compound 3.16 µM): > 10 µM
- IC50 (second compound 10 µM): 8.39 µM
- viability, T/C [1]: 111%
- viability, T/C [2]: 108%
- viability, T/C [3]: 108%
- viability, T/C [4]: 106%
- viability, T/C [5]: 94.3%
- viability, T/C [6]: 48.4%
- viability, T/C [7]: 107%
- viability, T/C [8]: 103%
- viability, T/C [9]: 102%
- viability, T/C [10]: 101%
- viability, T/C [11]: 90.2%
- viability, T/C [12]: 47.9%
- viability, T/C [13]: 98%
- viability, T/C [14]: 100%
- viability, T/C [15]: 102%
- viability, T/C [16]: 98.8%
- viability, T/C [17]: 89.9%
- viability, T/C [18]: 50.1%
- viability, T/C [19]: 104%
- viability, T/C [20]: 101%
- viability, T/C [21]: 100%
- viability, T/C [22]: 96.9%
- viability, T/C [23]: 87.8%
- viability, T/C [24]: 51.2%
- viability, T/C [25]: 100%
- viability, T/C [26]: 99.8%
- viability, T/C [27]: 101%
- viability, T/C [28]: 96%
- viability, T/C [29]: 79.2%
- viability, T/C [30]: 44.7%

SMILES: O=C(c1cc(Cc2n[nH]c(=O)c3ccccc23)ccc1F)N1CCN(C(=O)C2CC2)CC1 + NC1CCC(NC2CC2c2ccccc2)CC1
- IC50 (second compound 0.1 µM): > 10 µM
- IC50 (second compound 0.316 µM): > 10 µM
- IC50 (second compound 1 µM): > 10 µM
- IC50 (second compound 3.16 µM): > 10 µM
- IC50 (second compound 10 µM): > 10 µM
- viability, T/C [1]: 98.2%
- viability, T/C [2]: 97.4%
- viability, T/C [3]: 96%
- viability, T/C [4]: 94.2%
- viability, T/C [5]: 82.7%
- viability, T/C [6]: 51.2%
- viability, T/C [7]: 101%
- viability, T/C [8]: 99.6%
- viability, T/C [9]: 98.6%
- viability, T/C [10]: 95%
- viability, T/C [11]: 83.2%
- viability, T/C [12]: 51.2%
- viability, T/C [13]: 99.4%
- viability, T/C [14]: 100%
- viability, T/C [15]: 98.3%
- viability, T/C [16]: 94.4%
- viability, T/C [17]: 85.6%
- viability, T/C [18]: 53.1%
- viability, T/C [19]: 102%
- viability, T/C [20]: 101%
- viability, T/C [21]: 98.2%
- viability, T/C [22]: 95%
- viability, T/C [23]: 84.8%
- viability, T/C [24]: 54.4%
- viability, T/C [25]: 95.4%
- viability, T/C [26]: 98.8%
- viability, T/C [27]: 98.5%
- viability, T/C [28]: 92.2%
- viability, T/C [29]: 81%
- viability, T/C [30]: 53.3%
